Key:
Experiment in all cases: relative viability (nuclei count vs DMSO), 5 days (fraction); higher = more cells survive
[1] = compound: C1/C(=C\C2=CC=CS2)/C(=O)/C(=C/C3=CC=CS3)/C1 + Nc1ncn([C@H]2C[C@H](O)[C@@H](CO)O2)c(=O)n1 [Decitabine] (partner 2 µM)
Outline: (§1)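 Lung cancer cell lines were pin-tool dosed in 1536-well plates on the day after seeding, with either a lone drug or a fixed anchor-drug dose plus five library-drug doses (not always all listed) in √10 steps. Nuclei were counted on 4× images after 5 days. Relative viability is the ratio of treated-well to vehicle-well nuclei counts, with each value a median of duplicate plates.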

Lestaurtinib + Lapatinib = compound: C[C@]12O[C@H](C[C@]1(O)CO)n1c3ccccc3c3c4c(c5c6ccccc6n2c5c31)CNC4=O [Lestaurtinib] + CS(=O)(=O)CCNCc1ccc(-c2ccc3ncnc(Nc4ccc(OCc5cccc(F)c5)c(Cl)c4)c3c2)o1 [Lapatinib] (partner 2 µM)
Outline: as §1

[2] = compound: C1/C(=C\C2=CC=CS2)/C(=O)/C(=C/C3=CC=CS3)/C1 + N=C(N)NC(=N)NCCc1ccccc1 [Phenformin] (partner 250 µM)
Outline: as §1

TPCA-1 + Alpelisib = compound: C1=CC(=CC=C1C2=CC(=C(S2)NC(=O)N)C(=O)N)F [TPCA-1] + Cc1nc(NC(=O)N2CCC[C@H]2C(N)=O)sc1-c1ccnc(C(C)(C)C(F)(F)F)c1 [Alpelisib] (partner 2 µM)
Outline: as §1

Cell Line | relative viability ([1]; first compound 0.2 µM) | relative viability ([1]; first compound 0.6325 µM) | relative viability ([1]; first compound 2 µM) | relative viability ([1]; first compound 20 µM) | relative viability (Lestaurtinib + Lapatinib; first compound 0.005 µM) | relative viability (Lestaurtinib + Lapatinib; first compound 0.01581 µM) | relative viability (Lestaurtinib + Lapatinib; first compound 0.05 µM) | relative viability (Lestaurtinib + Lapatinib; first compound 0.1581 µM) | relative viability (Lestaurtinib + Lapatinib; first compound 0.5 µM) | relative viability ([2]; first compound 0.2 µM) | relative viability ([2]; first compound 0.6325 µM) | relative viability ([2]; first compound 2 µM) | relative viability ([2]; first compound 6.325 µM) | relative viability ([2]; first compound 20 µM) | relative viability (TPCA-1 + Alpelisib; first compound 0.04 µM) | relative viability (TPCA-1 + Alpelisib; first compound 0.1265 µM) | relative viability (TPCA-1 + Alpelisib; first compound 0.4 µM) | relative viability (TPCA-1 + Alpelisib; first compound 1.265 µM) | relative viability (TPCA-1 + Alpelisib; first compound 4 µM) | relative viability ([1]; first compound 6.325 µM)
NCI-H2009 | 0.356 | 0.381 | 0.359 | 0.347 | 0.959 | 0.942 | 0.807 | 0.755 | 0.15 | 0.511 | 0.52 | 0.493 | 0.453 | 0.426 | 1.2 | 1.13 | 1.13 | 1.1 | 1.2 | 
HCC-44 | 0.946 | 1 | 0.881 | 0.973 | 0.985 | 1.14 | 0.851 | 1.14 | 0.479 | 0.161 | 0.27 | 0.278 | 0.21 | 0.161 | 0.876 | 0.765 | 0.838 | 0.703 | 0.66 | 0.844
COR-L23 | 0.427 | 0.411 | 0.488 | 0.417 | 1.08 | 1.24 |  | 0.623 | 0.271 | 0.458 | 0.465 | 0.376 | 0.433 | 0.476 | 0.904 | 0.812 | 0.72 | 0.632 | 0.421 | 0.472
EMC-BAC-2 | 1 | 0.968 | 1.03 | 0.924 | 0.921 | 0.968 | 0.865 | 0.669 | 0.309 | 0.549 | 0.513 | 0.558 | 0.521 | 0.521 | 0.791 | 0.705 | 0.721 | 0.724 | 0.589 | 0.909
LK-2 | 0.341 | 0.31 | 0.358 | 0.347 | 0.89 | 1.07 | 0.64 | 0.496 | 0.283 | 0.576 | 0.505 | 0.622 | 0.379 | 0.483 | 1.23 | 0.758 | 0.946 | 0.692 | 0.627 | 0.33
SW 1573 | 0.609 | 0.502 | 0.552 | 0.456 | 1.33 | 1.16 | 1.02 | 0.767 | 0.738 | 0.397 | 0.412 | 0.355 | 0.363 | 0.398 | 0.872 | 0.631 | 0.659 | 0.709 | 0.784 | 0.408
NCI-H2405 | 0.798 | 0.722 | 0.822 | 0.704 | 1.06 | 1.14 | 1.02 | 0.927 | 0.428 | 0.404 | 0.386 | 0.441 | 0.413 | 0.402 | 1.06 | 0.599 | 0.805 |  | 0.605 | 0.719
NCI-H2087 | 0.251 | 0.286 | 0.36 | 0.224 | 1.31 | 1.05 | 0.858 | 0.693 | 0.205 | 0.5 | 0.546 | 0.553 | 0.393 | 0.431 | 1.06 | 0.871 | 0.916 | 1.06 | 0.418 | 0.305
NCI-H460 | 0.454 | 0.548 | 0.481 | 0.449 | 0.869 | 1.33 | 0.23 | 0.415 | 0.0473 | 0.543 | 0.568 | 0.519 | 0.344 | 0.522 | 0.638 | 0.464 | 0.518 | 0.373 | 0.105 | 0.473
LOU-NH91 | 0.85 | 0.777 | 0.781 | 0.825 | 0.768 | 0.721 | 0.638 | 0.562 | 0.404 | 0.696 | 0.757 | 0.843 | 0.67 | 0.736 | 0.769 | 0.652 | 0.736 | 0.78 | 0.669 | 0.797
NCI-H1651 | 0.616 | 0.646 | 0.868 | 0.587 | 0.756 | 0.93 | 0.715 | 0.636 | 0.211 | 0.352 | 0.372 | 0.446 | 0.26 | 0.323 | 1.03 | 0.82 | 0.988 | 1.09 | 0.863 | 0.357
